From paper PMC4139342, “Pharmacokinetics-Pharmacodynamics Analysis of Bicyclic 4-Nitroimidazole Analogs in a Murine Model of Tuberculosis” (PLoS ONE, 2014)
≈ marks a conversion by molar mass, not a printed value. Where two headings read alike, the source gives them in different places.

Experiments:
[1] = female, CD-1, mouse, in vivo, po
[2] = In vivo plasma PK after oral dosing in CM-2 formulation; details: for half-life: female, CD-1, mouse, plasma, po
[3] = In vivo lung PK after oral dosing; details: female, CD-1, mouse
[4] = in vitro; details: human, Caco-2
[5] = tested on: Mtb H37Rv; assay: In vivo mouse efficacy, established murine TB model; parameters: species or system Balb/c mice; details: for Dose dependence of efficacy, in words: 25 versus 100 mg/kg oral daily for 4 weeks; for log reduction at 25 mg/kg / log reduction at 100 mg/kg: Mycobacterium tuberculosis, H37RV, po, 672 h, read-out: Mean log lung CFU reduction ± SEM compared to untreated controls; for Efficacy compared with PA-824, in words: significance at P<0.05
Description: In vivo mouse efficacy studies were determined after intranasal infection of Balb/c mice with 10^3 cfu Mtb H37Rv. Treatment was initiated 4 weeks after infection. Compounds were orally administered in CM-2 formulation for 4 weeks daily. Bacterial loads were determined at 2 and 4 weeks post treatment. Statistical analysis was done by a one-way analysis of variance, followed by a multiple comparison analysis of variance by a one-way Tukey test (GraphPad Prism, version 5.02, San Diago, California USA, www.graphpad.com). Differences were considered statistically significant at the 95% level of confidence.

[6] = tested on: Mtb; details: murine model, cited from earlier work
[7] = in vivo; details: female, CD-1, mouse, po
[8] = female, CD-1, mouse, in vivo, po, 25 mg/kg
[9] = physchem
[10] = physchem; details: pH 6.8, aqueous buffer, thermodynamic from solid
[11] = In vivo plasma PK after intravenous dosing; details: mice
[12] = parameters: method as in PMID 16870750; details: mice dosed for 2 months; cited from earlier work
[13] = in vivo; details: female, CD-1, mouse, po; remark: listed apart in the source
[14] = PAMPA permeability
[15] = tested on: M. tuberculosis (Mtb) (H37Rv, ATCC 27294); assay: microbe, parasite or virus in culture; assay type: cell-based; details: for MIC99: Mycobacterium tuberculosis
[16] = parameters: method as in PMID 19528280; details: healthy subjects, oral daily doses for 7 days; cited from earlier work
[17] = Cytotoxicity against THP1 macrophage cell lines; assay type: cell-based; details: human
[18] = in vitro; details: mouse, plasma
[19] = in vivo; details: female, CD-1, mouse, iv; for clearance: i.v. CL
[20] = tested on: CaCo-2 colon carcinoma cell lines
[21] = not given; remark: listed apart in the source
[22] = mouse plasma, single oral dose 25 mg/kg, CM-2
[23] = 25 mg/kg oral daily for 4 weeks, mean value from three independent experiments (n = 15)
[24] = 25 mg/kg oral daily for 4 weeks, 5 animals
[25] = 100 mg/kg oral daily for 4 weeks, 5 animals
[26] = 25 mg/kg, Lung to Plasma ratio AUC24
[27] = 25 mg/kg, Lung to Plasma ratio Cmax
[28] = 25 mg/kg oral daily for 4 weeks
[29] = 100 mg/kg oral daily for 4 weeks

SMILES: O=[N+]([O-])c1cn2c(n1)OC[C@@H](OCc1ccc(OC(F)(F)F)cc1)C2 [PA-824, (6S)-2-nitro-6-{[4-(trifluoromethoxy)benzyl]oxy}-6,7-dihydro-5H-imidazo[2,1-b][1, 3]oxazine, reference compound]
- Lung AUC24 ([1]; 25 mg/kg): 139.9 µg·h/g
- Lung Cmax ([1]; 25 mg/kg): 17.8 µg/g
- F, oral bioavailability ([2]; mice, p.o. 25 mg/kg versus i.v. 5 mg/kg (PA-824: i.v. 10 mg/kg)): 100%
- T1/2 (p.o.) [2, 22]: 2.7
- p.o. Tmax [2, 22]: 2 h
- p.o. Cmax ([2]; mouse plasma, total concentration, single oral dose 25 mg/kg, CM-2): 6000 ng/mL
- half-life ([3]; 25 mg/kg): 4.8 h
- Papp A→B [4]: 27.6 ×10⁻⁶ cm/s
- Papp B→A [4]: 20.4 ×10⁻⁶ cm/s
- efflux ratio [4]: 0.8
- Mean log lung CFU reduction ± SEM compared to untreated controls [5, 23]: 1.48 ± 0.09 log CFU
- Dose dependence of efficacy, in words [5]: dose dependent increase in efficacy
- log reduction at 25 mg/kg [5, 24]: 1.23 to 1.56
- log reduction at 25 mg/kg [5, 23]: 1.48 ± 0.09
- log reduction at 100 mg/kg [5, 25]: 1.95 ± 0.13
- log reduction at 100 mg/kg ([5]; 100 mg/kg oral daily for 4 weeks, mean value from three independent experiments (n = 15)): 2.3 ± 0.08
- fT>MIC in plasma required ([6]; for 1-log10 kill): 48%
- fT>MIC in plasma required ([6]; for 1.59 log10 kill): 77%
- fT>MIC in plasma required ([6]; for bacteriostatic effect): 22%
- Tmax ([7]; 25 mg/kg): 0.3 h
- Kp [7, 26]: 2.7
- Kp [7, 27]: 3
- Plasma free fCmax [8]: 0.6 µg/mL
- logP [9]: 2.75
- solubility [10]: 13 µg/mL (≈ 36.2 µM)
- T1/2 (i.v) ([11]; i.v. dosing at 10 mg/kg): 1.6 h
- i.v. CL ([11]; i.v. dosing at 10 mg/kg): 12.1 mL/min/kg
- i.v. Vss ([11]; i.v. dosing at 10 mg/kg): 1.6 L/kg
- Plasma accumulation [12]: absence of plasma accumulation
- AUC ([13]; 25 mg/kg): 50900 ng·h/mL
- PAMPA Log Pe ([14]; effective permeability): –4.2 cm/sec
- PAMPA %FA ([14]; fraction absorbed): 99%
- MIC99 [15]: 0.3 µg/mL (≈ 0.835 µM)
- Tolerability [16]: well tolerated
- CC50 ([17]; THP1 macrophage cell line, THP1 macrophage cell lines, read-out: Cytotoxicity CC50): > 10 µg/mL
- fraction unbound [18]: 0.1

SMILES: O=C(CO[C@@H]1COc2nc([N+](=O)[O-])cn2C1)N1CCN(c2ccc(C(F)(F)F)cn2)CC1 [NI-644]
- Vd ([19]; 10 mg/kg): 0.7 L/kg
- clearance ([19]; 10 mg/kg): 9.5 mL/min/kg
- Permeability in the Caco-2 assay, in words [20]: moderate permeability
- Lung AUC24 ([1]; 50 mg/kg): 38.1 µg·h/g
- Lung Cmax ([1]; 50 mg/kg): 7.5 µg/g
- half-life ([2]; 50 mg/kg): 3.6 h
- half-life ([3]; 50 mg/kg): 2.9 h
- Papp A→B [4]: 2.8 ×10⁻⁶ cm/s
- Papp B→A [4]: 13.7 ×10⁻⁶ cm/s
- efflux ratio [4]: 4.8
- Mean log lung CFU ± SEM [5, 24]: 6.18±0.03 log CFU
- Efficacy compared with PA-824, in words [5, 28]: significantly (P<0.05) less efficacious than PA-824
- Mean log lung CFU ± SEM [5, 25]: 6.09±0.07 log CFU
- Efficacy compared with PA-824, in words [5, 29]: significantly (P<0.05) less efficacious than PA-824
- Dose dependence of efficacy, in words [5]: no dose-dependent increase in bactericidal activity
- log reduction at 25 mg/kg [5, 24]: 0.48 to 0.89
- log reduction at 100 mg/kg [5, 25]: 0.57 ± 0.07
- Tmax ([7]; 50 mg/kg): 1 h
- Kp ([7]; 50 mg/kg, Lung to Plasma ratio AUC24): 0.4
- Kp ([7]; 50 mg/kg, Lung to Plasma ratio Cmax): 0.5
- logP [9]: 2.6
- solubility [10]: 14 µg/mL (≈ 30.7 µM)
- half-life ([11]; female, CD-1, mouse, plasma, iv, 10 mg/kg, T1/2 (i.v), i.v. dosing at 10 mg/kg): < 1 h
- T1/2 (i.v) ([11]; i.v. dosing at 10 mg/kg, 10 mg/kg): 0.9 h
- AUC ([13]; 50 mg/kg): 89500 ng·h/mL
- Cmax ([13]; 50 mg/kg): 16200 ng/mL
- Tmax ([13]; 50 mg/kg): 1 h
- bioavailability ([13]; 50 mg/kg): 100%
- MIC99 [15]: 0.09 µg/mL (≈ 0.197 µM)
- CC50 [17]: > 10 µg/mL
- fraction unbound [18]: 0.1
- PAMPA %FA: 83%
- PAMPA Log Pe: –4.9 cm/sec

SMILES: O=[N+]([O-])c1cn2c(n1)OC[C@@H](NCc1ccc(OC(F)(F)F)c(F)c1)C2 [NI-136]
- Vd ([19]; 5 mg/kg): 1.8 L/kg
- clearance ([19]; 5 mg/kg): 25.1 mL/min/kg
- Absolute lung concentrations, fold lower than PA-824 ([1]; 25 mg/kg): 2.5-7.5 fold
- Lung AUC24 ([1]; 25 mg/kg): 39.8 µg·h/g
- Lung Cmax ([1]; 25 mg/kg): 7.2 µg/g
- half-life ([2]; 25 mg/kg): 2 h
- half-life ([3]; 25 mg/kg): 2.5 h
- Papp A→B [4]: 15.4 ×10⁻⁶ cm/s
- Papp B→A [4]: 12.6 ×10⁻⁶ cm/s
- efflux ratio [4]: 0.8
- Mean log lung CFU reduction ± SEM compared to untreated controls [5, 24]: 1.31 ± 0.06 log CFU
- Mean log lung CFU ± SEM [5, 24]: 4.93±0.06 log CFU
- Efficacy compared with PA-824, in words [5, 28]: comparable efficacy to PA-824
- Mean log lung CFU ± SEM [5, 25]: 4.18±0.17 log CFU
- Efficacy compared with PA-824, in words [5, 29]: comparable efficacy to PA-824
- Dose dependence of efficacy, in words [5]: dose dependent increase in efficacy
- log reduction at 25 mg/kg [5, 24]: 1.31 ± 0.06
- log reduction at 100 mg/kg [5, 25]: 2.06 ± 0.17
- Tmax ([7]; 25 mg/kg): 0.5 h
- Kp [7, 26]: 3.7
- Kp [7, 27]: 3.6
- Plasma free fCmax [8]: 0.3 µg/mL
- logP [9]: 2.6
- Solubility pH 6.8 [21]: 43.0 µg/mL
- T1/2 (i.v) ([11]; i.v. dosing at 5 mg/kg): 1.3 h
- AUC ([13]; 25 mg/kg): 10700 ng·h/mL
- Cmax ([13]; 25 mg/kg): 2000 ng/mL
- Tmax ([13]; 25 mg/kg): 0.5 h
- bioavailability ([13]; 25 mg/kg): 64%
- In vitro potency relative to PA-824 [15]: 10 times
- MIC99 [15]: 0.03 µg/mL (≈ 0.0797 µM)
- CC50 [17]: > 10 µg/mL
- fraction unbound [18]: 0.173
- PAMPA %FA: 83%
- PAMPA Log Pe: –4.7 cm/sec
